Tests used:
A2B adenosine receptor = molecular target: T1, A2B adenosine receptor (Homo sapiens, UniProt P29275); assay: Radioligand binding assay
T1 construct: MDS Pharma Services Taiwan
T1 sequence (P29275 1-332): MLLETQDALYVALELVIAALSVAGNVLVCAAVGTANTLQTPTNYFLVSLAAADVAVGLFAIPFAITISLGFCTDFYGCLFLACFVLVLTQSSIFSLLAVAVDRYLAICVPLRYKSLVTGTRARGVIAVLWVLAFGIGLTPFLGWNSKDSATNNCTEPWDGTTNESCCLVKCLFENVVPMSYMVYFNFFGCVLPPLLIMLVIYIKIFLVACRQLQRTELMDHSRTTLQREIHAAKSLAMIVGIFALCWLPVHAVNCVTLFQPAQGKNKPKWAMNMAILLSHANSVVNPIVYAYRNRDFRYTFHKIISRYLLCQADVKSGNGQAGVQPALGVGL

Anaphylatoxin C5a = molecular target: T2, Anaphylatoxin C5a (Homo sapiens, UniProt P21730); assay: Radioligand binding panel (Table S1); conditions: 10 μM T1-11, n 2
T2 construct: purchased MDS Pharma Services Taiwan

Androgen (Testosterone) = assay: Radioligand binding panel (Table S1); set-up: species or system human; conditions: 10 μM T1-11, n 2
Bradykinin B1 = molecular target: T3, Bradykinin B1 (Homo sapiens, UniProt P46663); assay: Radioligand binding panel (Table S1); conditions: 10 μM T1-11, n 2
T3 construct: purchased MDS Pharma Services Taiwan

[1] = test system: Calcium Channel L-Type, Benzothiazepine; assay: Radioligand binding panel (Table S1); set-up: species or system rat; conditions: 10 μM T1-11, n 2
[2] = test system: Calcium Channel L-Type, Dihydropyridine; assay: Radioligand binding panel (Table S1); set-up: species or system rat; conditions: 10 μM T1-11, n 2
Cannabinoid CB1 = molecular target: T4, Cannabinoid CB1 (Homo sapiens, UniProt P21554); assay: Radioligand binding panel (Table S1); conditions: 10 μM T1-11, n 2
T4 construct: purchased MDS Pharma Services Taiwan

Chemokine CCR5 = molecular target: T5, Chemokine CCR5 (Homo sapiens, UniProt P51681); assay: Radioligand binding panel (Table S1); conditions: 10 μM T1-11, n 2
T5 construct: purchased MDS Pharma Services Taiwan

[3] = molecular target: T6, Cholecystokinin CCK. (CCKA) (Homo sapiens, UniProt P32238); assay: Radioligand binding panel (Table S1); conditions: 10 μM T1-11, n 2
T6 construct: purchased MDS Pharma Services Taiwan

[4] = molecular target: T7, Corticotropin Releasing Factor, CRF1 (Homo sapiens, UniProt P34998); assay: Radioligand binding panel (Table S1); conditions: 10 μM T1-11, n 2
T7 construct: purchased MDS Pharma Services Taiwan

Dopamine D2S = molecular target: T8, Dopamine D2S (Homo sapiens, UniProt P14416); assay: Radioligand binding panel (Table S1); conditions: 10 μM T1-11, n 2
T8 construct: purchased MDS Pharma Services Taiwan

Endothelin ETB = molecular target: T9, Endothelin ETB (Homo sapiens, UniProt P24530); assay: Radioligand binding panel (Table S1); conditions: 10 μM T1-11, n 2
T9 construct: purchased MDS Pharma Services Taiwan

GABAA, Agonist Site = assay: Radioligand binding panel (Table S1); set-up: species or system rat; conditions: 10 μM T1-11, n 2
[5] = test system: GABAA, Chloride Channel, TBOB; assay: Radioligand binding panel (Table S1); set-up: species or system rat; conditions: 10 μM T1-11, n 2
Glutamate, Non-Selective = assay: Radioligand binding panel (Table S1); set-up: species or system rat; conditions: 10 μM T1-11, n 2
Histamine H1 = molecular target: T10, Histamine H1 (Homo sapiens, UniProt P35367); assay: Radioligand binding panel (Table S1); conditions: 10 μM T1-11, n 2
T10 construct: purchased MDS Pharma Services Taiwan

Histamine H4 = molecular target: T11, Histamine H4 (Homo sapiens, UniProt Q9H3N8); assay: Radioligand binding panel (Table S1); conditions: 10 μM T1-11, n 2
T11 construct: purchased MDS Pharma Services Taiwan

[6] = test system: Imidazoline I2, Peripheral; assay: Radioligand binding panel (Table S1); set-up: species or system rat; conditions: 10 μM T1-11, n 2
Interleukin IL-1 = molecular target: T12, Interleukin IL-1 (Mus musculus, UniProt P13504); assay: Radioligand binding panel (Table S1); conditions: 10 μM T1-11, n 2
T12 construct: purchased MDS Pharma Services Taiwan

[7] = molecular target: T13, Leukotriene, Cysteinyl CysLT2 (Homo sapiens, UniProt Q9NS75); assay: Radioligand binding panel (Table S1); conditions: 10 μM T1-11, n 2
T13 construct: purchased MDS Pharma Services Taiwan

Melatonin MT2 = molecular target: T14, Melatonin MT2 (Homo sapiens, UniProt P49286); assay: Radioligand binding panel (Table S1); conditions: 10 μM T1-11, n 2
T14 construct: purchased MDS Pharma Services Taiwan

Muscarinic M3 = molecular target: T15, Muscarinic M3 (Homo sapiens, UniProt P20309); assay: Radioligand binding panel (Table S1); conditions: 10 μM T1-11, n 2
T15 construct: purchased MDS Pharma Services Taiwan

[8] = molecular target: T16, N-Formyl Peptide Receptor, FPR1 (Homo sapiens, UniProt P21462); assay: Radioligand binding panel (Table S1); conditions: 10 μM T1-11, n 2
T16 construct: purchased MDS Pharma Services Taiwan

Orexin OX 1 = molecular target: T17, Orexin OX 1 (Homo sapiens, UniProt O43613); assay: Radioligand binding panel (Table S1); conditions: 10 μM T1-11, n 2
T17 construct: purchased MDS Pharma Services Taiwan

Phosphodiesterase PDE3 = molecular target: T18, Phosphodiesterase PDE3 (Homo sapiens, UniProt Q14432); assay: Radioligand binding panel (Table S1); conditions: 10 μM T1-11, n 2
T18 construct: purchased MDS Pharma Services Taiwan

Potassium Channel [SKCA] = assay: Radioligand binding panel (Table S1); set-up: species or system rat; conditions: 10 μM T1-11, n 2
Prostanoid CRTH2 = molecular target: T19, Prostanoid CRTH2 (Homo sapiens, UniProt Q9Y5Y4); assay: Radioligand binding panel (Table S1); conditions: 10 μM T1-11, n 2
T19 construct: purchased MDS Pharma Services Taiwan

[9] = test system: Thyrotropin Releasing Hormone (TRH); assay: Radioligand binding panel (Table S1); set-up: species or system rat; conditions: 10 μM T1-11, n 2
Urotensin II = molecular target: T20, Urotensin II (Homo sapiens, UniProt Q9UKP6); assay: Radioligand binding panel (Table S1); conditions: 10 μM T1-11, n 2
T20 construct: purchased MDS Pharma Services Taiwan

PC12 cells [10] = assay: MTT metabolism assay, serum-deprived PC12 cells; type: cell-based, rat; conditions: 24 h
Experimental: Survival was assessed by the 3-(4,5-dimethylthiazol-2-yl)-2,5-diphenyltetrazolium bromide (MTT) metabolism assay as described elsewhere, [65]. In brief, cells grown on 150-mm plates were washed three times with PBS and resuspended in DMEM. Suspended cells (1×10^4 cells) were plated on 96-well plates and treated with or without the indicated reagent. After incubation for 24 h, MTT (0.5 mg/ml) was added to the medium and incubated for 3 h. After discarding the medium, DMSO (100 µl) was then applied to the well to dissolve the formazan crystals derived from the mitochondrial cleavage of the tetrazolium ring by live cells. The absorbance at 570/630 nm in each well was measured on a micro-enzyme-linked immunosorbent assay reader.

PC12 cells [11] = assay: Annexin V-FITC staining, serum-deprived PC12 cells; type: cell-based, rat; conditions: T1-11 10 µM, 24 h
Experimental: An annexin V (FITC-conjugated) apoptosis kit (K101-400; BioVision, Mountain View, CA, USA) was used to analyze apoptotic cells. The experimental protocol followed the manufacturer's instructions and a previous article. In brief, after treatment with serum, serum-free medium, or serum-free medium plus T1-11 of the indicated concentration for 24 h, cells growing on 12-well plates at (3∼4)×10^5 cells/well were loaded with 0.5 ml binding buffer and 5 µl annexin V-FITC. After incubation for 5 min in the dark, cells were washed once with 1 ml of culture medium (without phenol red) for fluorescent imaging analyses (Axiovert-200M, Carl Zeiss, Gôttingen, Germany) or a flow cytometric analysis (Beckton Dickinson, Franklin Lakes, NJ, USA). Median values of the FITC fluorescent intensities were determined using an FL-1 channel (488/530Ex/Em nm). Five thousand live cells were analyzed per sample.

[12] = n.s. = not significant, no significant binding at 10 µM

T16 sequence (P21462 whole entry): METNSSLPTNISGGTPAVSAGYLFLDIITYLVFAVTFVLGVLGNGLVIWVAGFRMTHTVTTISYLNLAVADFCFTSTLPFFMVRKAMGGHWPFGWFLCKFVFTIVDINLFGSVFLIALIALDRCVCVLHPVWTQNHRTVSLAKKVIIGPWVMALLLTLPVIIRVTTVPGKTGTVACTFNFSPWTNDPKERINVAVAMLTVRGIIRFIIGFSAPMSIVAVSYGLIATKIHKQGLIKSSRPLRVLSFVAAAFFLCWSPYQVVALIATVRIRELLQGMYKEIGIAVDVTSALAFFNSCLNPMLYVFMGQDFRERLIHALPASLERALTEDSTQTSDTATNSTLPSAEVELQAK
T2 sequence (P21730 whole entry): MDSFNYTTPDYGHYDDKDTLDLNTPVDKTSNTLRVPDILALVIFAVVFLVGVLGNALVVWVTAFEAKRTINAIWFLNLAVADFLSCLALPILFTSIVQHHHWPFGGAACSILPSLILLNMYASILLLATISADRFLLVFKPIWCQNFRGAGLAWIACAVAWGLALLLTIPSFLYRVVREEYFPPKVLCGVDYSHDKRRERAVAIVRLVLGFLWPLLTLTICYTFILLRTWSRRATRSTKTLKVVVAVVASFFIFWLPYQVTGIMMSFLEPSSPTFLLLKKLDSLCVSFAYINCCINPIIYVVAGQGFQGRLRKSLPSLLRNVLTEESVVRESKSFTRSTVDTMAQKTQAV
T5 sequence (P51681 whole entry): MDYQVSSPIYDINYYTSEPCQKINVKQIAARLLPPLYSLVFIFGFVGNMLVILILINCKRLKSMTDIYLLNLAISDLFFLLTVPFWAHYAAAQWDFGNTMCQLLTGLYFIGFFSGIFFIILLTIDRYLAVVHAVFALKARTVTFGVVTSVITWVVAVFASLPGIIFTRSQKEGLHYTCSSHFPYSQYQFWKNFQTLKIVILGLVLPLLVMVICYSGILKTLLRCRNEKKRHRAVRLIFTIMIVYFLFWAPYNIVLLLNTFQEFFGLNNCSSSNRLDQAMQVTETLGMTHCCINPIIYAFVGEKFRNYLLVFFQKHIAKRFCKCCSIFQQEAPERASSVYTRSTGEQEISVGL
T19 sequence (Q9Y5Y4 whole entry): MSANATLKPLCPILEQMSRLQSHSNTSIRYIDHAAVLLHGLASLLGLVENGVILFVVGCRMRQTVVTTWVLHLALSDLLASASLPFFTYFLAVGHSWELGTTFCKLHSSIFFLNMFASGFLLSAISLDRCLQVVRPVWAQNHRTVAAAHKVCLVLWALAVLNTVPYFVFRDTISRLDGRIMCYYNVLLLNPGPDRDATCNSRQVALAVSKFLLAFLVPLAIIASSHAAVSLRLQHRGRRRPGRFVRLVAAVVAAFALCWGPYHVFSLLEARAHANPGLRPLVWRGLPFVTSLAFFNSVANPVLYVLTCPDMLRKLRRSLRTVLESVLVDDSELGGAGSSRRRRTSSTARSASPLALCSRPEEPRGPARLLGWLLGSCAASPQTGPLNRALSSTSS
T18 sequence (Q14432 whole entry): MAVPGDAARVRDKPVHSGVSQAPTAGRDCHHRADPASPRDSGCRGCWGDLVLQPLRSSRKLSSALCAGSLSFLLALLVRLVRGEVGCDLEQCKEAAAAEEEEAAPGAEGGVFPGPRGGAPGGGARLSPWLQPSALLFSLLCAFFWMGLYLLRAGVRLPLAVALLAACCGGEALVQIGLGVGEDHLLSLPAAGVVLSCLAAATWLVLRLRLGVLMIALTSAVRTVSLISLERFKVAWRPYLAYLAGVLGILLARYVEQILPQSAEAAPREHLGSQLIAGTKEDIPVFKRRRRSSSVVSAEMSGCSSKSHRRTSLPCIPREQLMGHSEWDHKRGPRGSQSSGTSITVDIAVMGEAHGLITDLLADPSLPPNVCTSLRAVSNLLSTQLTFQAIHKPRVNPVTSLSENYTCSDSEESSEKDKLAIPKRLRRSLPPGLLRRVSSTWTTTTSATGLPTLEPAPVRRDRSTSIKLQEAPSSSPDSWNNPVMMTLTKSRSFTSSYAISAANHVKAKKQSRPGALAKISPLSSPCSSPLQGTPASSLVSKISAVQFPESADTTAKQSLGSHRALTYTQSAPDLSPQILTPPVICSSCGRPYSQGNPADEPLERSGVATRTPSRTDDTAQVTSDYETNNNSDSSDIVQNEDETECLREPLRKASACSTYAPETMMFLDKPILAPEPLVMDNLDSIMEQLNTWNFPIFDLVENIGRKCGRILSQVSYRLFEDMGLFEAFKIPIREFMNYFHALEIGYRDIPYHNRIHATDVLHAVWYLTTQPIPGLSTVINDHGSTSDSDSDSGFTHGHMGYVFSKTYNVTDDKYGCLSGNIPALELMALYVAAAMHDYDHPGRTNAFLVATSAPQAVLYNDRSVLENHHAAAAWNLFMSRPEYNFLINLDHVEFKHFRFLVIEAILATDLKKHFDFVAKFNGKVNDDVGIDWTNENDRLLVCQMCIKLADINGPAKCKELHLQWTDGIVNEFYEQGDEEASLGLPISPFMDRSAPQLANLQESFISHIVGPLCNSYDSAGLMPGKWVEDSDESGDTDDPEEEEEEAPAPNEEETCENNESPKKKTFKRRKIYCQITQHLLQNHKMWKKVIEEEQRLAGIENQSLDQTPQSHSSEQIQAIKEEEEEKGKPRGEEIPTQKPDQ
T13 sequence (Q9NS75 whole entry): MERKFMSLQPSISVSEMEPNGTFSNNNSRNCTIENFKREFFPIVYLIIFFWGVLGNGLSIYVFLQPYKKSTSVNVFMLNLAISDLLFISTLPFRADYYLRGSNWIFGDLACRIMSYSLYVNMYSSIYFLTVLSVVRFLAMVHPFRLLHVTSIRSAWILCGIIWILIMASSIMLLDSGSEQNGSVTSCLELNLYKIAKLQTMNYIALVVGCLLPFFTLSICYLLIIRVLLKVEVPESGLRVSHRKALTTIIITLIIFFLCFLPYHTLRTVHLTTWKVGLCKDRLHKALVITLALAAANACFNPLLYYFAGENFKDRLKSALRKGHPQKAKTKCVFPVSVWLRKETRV
T17 sequence (O43613 whole entry): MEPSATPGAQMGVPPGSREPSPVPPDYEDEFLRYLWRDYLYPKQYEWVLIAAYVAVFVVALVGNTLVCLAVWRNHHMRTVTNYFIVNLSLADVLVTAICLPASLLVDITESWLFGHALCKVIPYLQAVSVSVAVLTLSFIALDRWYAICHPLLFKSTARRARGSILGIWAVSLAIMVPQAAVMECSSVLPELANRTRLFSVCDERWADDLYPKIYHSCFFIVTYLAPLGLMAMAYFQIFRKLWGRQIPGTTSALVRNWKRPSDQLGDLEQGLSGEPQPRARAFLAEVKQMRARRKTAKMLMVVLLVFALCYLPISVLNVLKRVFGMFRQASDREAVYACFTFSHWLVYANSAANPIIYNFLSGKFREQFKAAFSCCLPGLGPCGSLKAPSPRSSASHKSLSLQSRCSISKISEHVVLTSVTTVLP
T7 sequence (P34998 24-415): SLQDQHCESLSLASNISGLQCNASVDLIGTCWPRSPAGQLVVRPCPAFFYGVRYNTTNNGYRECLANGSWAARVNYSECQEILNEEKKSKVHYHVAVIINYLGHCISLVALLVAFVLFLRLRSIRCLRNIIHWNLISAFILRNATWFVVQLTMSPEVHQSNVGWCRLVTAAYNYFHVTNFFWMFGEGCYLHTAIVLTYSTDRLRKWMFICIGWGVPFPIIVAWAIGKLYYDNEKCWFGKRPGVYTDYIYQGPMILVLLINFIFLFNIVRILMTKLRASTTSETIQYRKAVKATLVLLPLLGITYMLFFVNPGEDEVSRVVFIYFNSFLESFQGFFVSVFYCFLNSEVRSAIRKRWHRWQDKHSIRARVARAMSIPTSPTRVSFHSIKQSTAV
T11 sequence (Q9H3N8 whole entry): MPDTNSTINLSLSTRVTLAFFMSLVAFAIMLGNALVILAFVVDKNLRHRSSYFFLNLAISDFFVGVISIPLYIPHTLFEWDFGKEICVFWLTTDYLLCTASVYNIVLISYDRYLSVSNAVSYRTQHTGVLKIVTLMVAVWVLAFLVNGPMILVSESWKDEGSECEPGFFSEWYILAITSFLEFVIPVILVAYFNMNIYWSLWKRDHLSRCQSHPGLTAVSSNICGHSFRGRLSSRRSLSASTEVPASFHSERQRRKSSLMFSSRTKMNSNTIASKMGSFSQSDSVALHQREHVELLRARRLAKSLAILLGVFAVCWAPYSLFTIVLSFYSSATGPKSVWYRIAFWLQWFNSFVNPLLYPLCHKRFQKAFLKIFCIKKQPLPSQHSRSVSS
T14 sequence (P49286 whole entry): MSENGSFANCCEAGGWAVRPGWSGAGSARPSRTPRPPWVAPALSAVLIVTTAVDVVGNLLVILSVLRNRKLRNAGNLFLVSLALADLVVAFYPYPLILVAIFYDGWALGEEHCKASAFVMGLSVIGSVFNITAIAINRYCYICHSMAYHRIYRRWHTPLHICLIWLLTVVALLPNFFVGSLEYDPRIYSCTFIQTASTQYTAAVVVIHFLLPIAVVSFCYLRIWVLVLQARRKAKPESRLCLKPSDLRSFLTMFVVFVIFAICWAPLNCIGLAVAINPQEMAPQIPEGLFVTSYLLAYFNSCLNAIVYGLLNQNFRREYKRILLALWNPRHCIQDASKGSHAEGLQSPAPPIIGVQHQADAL
T9 sequence (P24530 27-442): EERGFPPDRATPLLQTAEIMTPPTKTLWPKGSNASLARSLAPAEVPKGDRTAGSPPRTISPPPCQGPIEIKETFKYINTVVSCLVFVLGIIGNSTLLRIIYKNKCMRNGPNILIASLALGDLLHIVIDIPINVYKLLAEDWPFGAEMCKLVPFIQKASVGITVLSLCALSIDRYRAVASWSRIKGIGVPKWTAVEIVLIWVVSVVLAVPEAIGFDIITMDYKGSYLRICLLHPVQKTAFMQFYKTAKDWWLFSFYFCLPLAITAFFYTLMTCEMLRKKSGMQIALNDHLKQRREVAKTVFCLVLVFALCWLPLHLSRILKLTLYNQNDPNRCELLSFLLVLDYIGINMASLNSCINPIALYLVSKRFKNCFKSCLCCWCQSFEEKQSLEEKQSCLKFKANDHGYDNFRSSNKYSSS

SMILES: OC[C@H]1O[C@@H](n2cnc3c(NCc4ccc(O)cc4)ncnc32)[C@H](O)[C@@H]1O [T1-11, N ^6-(4-hydroxybenzyl)adenine riboside]
- inhibition at 10 µM (A2B adenosine receptor; 10 μM T1-11, n 2): 0%
- IC50 (A2B adenosine receptor; [12]): n.s.
- Ki (A2B adenosine receptor; [12]): n.s.
- inhibition at 10 µM (Anaphylatoxin C5a): 2%
- % Inhibition (Androgen (Testosterone)): 3%
- inhibition at 10 µM (Bradykinin B1): -8%
- % Inhibition [1]: -8%
- % Inhibition [2]: -4%
- inhibition at 10 µM (Cannabinoid CB1): -7%
- inhibition at 10 µM (Chemokine CCR5): -8%
- inhibition at 10 µM [3]: -3%
- inhibition at 10 µM [4]: 1%
- inhibition at 10 µM (Dopamine D2S): 10%
- inhibition at 10 µM (Endothelin ETB): 2%
- % Inhibition (GABAA, Agonist Site): 4%
- % Inhibition [5]: -3%
- % Inhibition (Glutamate, Non-Selective): -1%
- inhibition at 10 µM (Histamine H1): 1%
- inhibition at 10 µM (Histamine H4): 8%
- % Inhibition [6]: 10%
- inhibition at 10 µM (Interleukin IL-1): 4%
- inhibition at 10 µM [7]: 10%
- inhibition at 10 µM (Melatonin MT2): -20%
- inhibition at 10 µM (Muscarinic M3): -6%
- inhibition at 10 µM [8]: 5%
- inhibition at 10 µM (Orexin OX 1): -13%
- inhibition at 10 µM (Phosphodiesterase PDE3): 0%
- % Inhibition (Potassium Channel [SKCA]): 1%
- inhibition at 10 µM (Prostanoid CRTH2): 0%
- % Inhibition [9]: -4%
- inhibition at 10 µM (Urotensin II): 6%
- Protection against serum withdrawal-induced cell death (MTT) (PC12 cells [10]): protected against serum withdrawal-induced cell death in a dose-dependent manner
- Apoptosis (annexin V-FITC) (PC12 cells [11]): rescued serum-deprived PC12 cells from apoptosis

— paper PMC3119665, “A New Drug Design Targeting the Adenosinergic System for Huntington's Disease” (PLoS ONE, 2011)
